From patent US20260160767A1, “Biosynthetic Method for Preparing 10-Hydroxy-2-Decenoic Acid and Use Thereof in Skin Care” (SHANDONG FREDA BIOTECH CO., LTD., priority 2023, published 2026) come the findings set out here.

Holding throughout (format): cell-based
In one assay the test system is 3D epidermal model. Description: Regulation of ceramides and fatty acids in a 3D epidermal model (stratum corneum lipid extraction, LC-MS). The note with it: 10-HDA 0.0625 mg/mL; relative to untreated control system. On the procedure:
The model was transferred to a 6-well plate pre-filled with 3.7 mL/well model culture medium and incubated for 24 hours in a CO2 incubator (37° C., 5% CO2). The positive control (PC) group contained WY-14643 (pirinixic acid) at a final concentration of 50 μM. In the sample group, 10-HDA was at a final concentration of 0.0625 mg/mL. After incubation, each model was cut into two halves. One half was used for protein measurement, and the other half was used for lipid extraction and placed in a 6-well plate (the model was stored at −80° C.). For lipid extraction, 1 mL trypsin was added to each well of the 6-well plate and incubated for 30 minutes in an incubator. Water was added on the lid of the 6-well plate. The model and the nylon membrane were separated with tweezers, and viscous material on the stratum corneum was peeled off with tweezers. Water on the stratum corneum was blotted dry with paper, and the stratum corneum was placed into a glass tube. 1 mL chloroform:methanol mixture (chloroform:methanol=1:1) was added to each glass tube. The tube was ultrasonicated in an ice bath for 30 minutes. The supernatant was transferred to a vial and evaporated to dryness. To the dried vial, 160 μL acetonitrile: isopropanol mixture (acetonitrile:isopropanol=1:1) was added, and 20 μL ceramide C12 internal standard solution was added (the ceramide internal standard solution having a concentration of 100 μg/mL, with the internal standard solvent being a 1:1 mixture of acetonitrile and isopropanol). The mixture was ultrasonicated for 10 minutes and shaken for dissolution for 30 minutes, transferred to a sample centrifuge tube, centrifuged at 12,000 rpm for 10 minutes, and 100 μL of the upper layer was transferred into a 250 μL insert. LC-MS detection was performed using a Thermo Fisher Orbitrap Q Exactive™ quadrupole-Orbitrap high-resolution mass spectrometer.
Mass spectrometry conditions were as follows: mass spectrometry analysis was performed using a quadrupole-Orbitrap mass spectrometer equipped with a heated electrospray ionization source. Ion source voltages for positive and negative modes were 3.7 kV and 3.5 kV, respectively. Capillary heating temperature was 320° C. Sheath gas pressure was 30 psi, and auxiliary gas pressure was 10 psi. Heated vaporizer temperature was 300° C. Both sheath gas and auxiliary gas were nitrogen. Collision gas was nitrogen at a pressure of 1.5 mTorr. Full MS scan parameters were: resolution 70,000; automatic gain control target 1×10^6; […] 50 ms; and m/z scan range 50-1500. The LC-MS system was controlled by Xcalibur 2.2 SP1.48 software, and data acquisition was also controlled by the software.

The subject of assay [1] is fibroblasts. Description: DNA damage products 8-OHdG (kit) and γ-H2AX (immunofluorescence) in UV-A irradiated fibroblasts. The note with it: Fibroblast, light or radiation study, 10-HDA 0.25 mg/mL, UV-A 30 J/cm^2, 24 hours after irradiation, relative to irradiated control without 10-HDA. On the procedure: Fibroblasts were seeded into a 6-well plate at a seeding density of 2.2×10^5 cells/well and incubated overnight in an incubator (37° C., 5% CO2). When the confluence reached 40%-60%, 2 mL of culture medium containing a corresponding concentration of a test substance was added to each well according to different groups. The BC group was a blank control group without any drug intervention and was cultured only in 2 mL normal medium. The NC group was a negative control group without any drug intervention and was cultured only in 2 mL normal medium. The PC group was a positive control group containing VE at a final concentration of 7 μg/mL. The sample group contained 10-HDA at a final concentration of 0.25 mg/mL. After drug incubation for 24 hours, according to test groups, the NC group, PC group, and sample group were subjected to UV-A irradiation at a dose of 30 J/cm^2. After irradiation, the cells were further cultured for 24 hours in an incubator (37° C., 5% CO2). After incubation, cell culture supernatants were collected and tested according to the operation instructions of an 8-OHdG kit. […] Images were acquired under a fluorescence microscope and analyzed using Image-Pro® Plus image processing software.

For assay [2], the system named is fibroblasts. Description: Mitochondrial function in UV-A irradiated fibroblasts (mitochondrial ROS, ATP, NADP+/NADPH and JC-1 kits). The note with it: 10-HDA 0.25 mg/mL, UV-A 30 J/cm^2, 24 hours after irradiation, relative to irradiated control; for inhibition at 250 µg/mL: Fibroblast, light or radiation study. On the procedure:
Fibroblasts were seeded into a 6-well plate at a seeding density of 2.2×10^5 cells/well and incubated overnight in an incubator (37° C., 5% CO2). When the confluence reached 40%-60%, 2 mL of culture medium containing a corresponding concentration of a test substance was added to each well according to different groups. The BC group was a blank control group without any drug intervention and was cultured only in 2 mL normal medium. The NC group was a negative control group without any drug intervention and was cultured only in 2 mL normal medium. The PC group was a positive control group containing VE at a final concentration of 7 μg/mL. The sample group contained 10-HDA at a final concentration of 0.25 mg/mL. After drug incubation for 24 hours, according to test grouping, the NC group, PC group, and sample group were subjected to UV-A irradiation at a dose of 30 J/cm^2. After irradiation, the cells were further cultured for 24 hours in an incubator (37° C., 5% CO2). After incubation, mitochondrial functions were assessed according to instructions of a mitochondrial ROS detection kit, a mitochondrial ATP detection kit (Beyotime), a mitochondrial NADP^+/NADPH detection kit (WST-8 method), and a JC-1 mitochondrial membrane potential detection kit.

The test system of assay [3] is fibroblasts. Description: Telomere length by qPCR (T/S ratio) in H2O2-stimulated fibroblasts. The note with it: positive control 1 mg/mL; cells from adult; H2O2 stimulation three days, 2 hours each; five passages. On the procedure:
Fibroblasts were seeded into a 6-well plate at a seeding density of 2.2×10^5 cells/well and incubated overnight in an incubator (37° C., 5% CO2). When the confluence reached 40%-60%, 2 mL of culture medium containing a corresponding concentration of a test substance was added to each well according to different groups. The BC group was a blank control group, wherein the cells were derived from back skin of children aged 7-8 years, and no drug intervention was performed during cultivation. The NC group was a negative control group, wherein the cells were derived from back skin of an adult. When the confluence reached 40%-60%, H2O2 stimulation was applied for three consecutive days, with each stimulation lasting 2 hours, and samples were collected for detection after continuous passaging for five passages. The PC group was a positive control group, wherein the cells were derived from back skin of an adult. When the confluence reached 40%-60%, H2O2 stimulation was applied for three consecutive days, with each stimulation lasting 2 hours. During the stimulation period, the cells were cultured in a medium containing cycloastragenol at a final concentration of 1 mg/mL. Samples were collected for detection after continuous passaging for five passages. […] Genomic DNA (gDNA) was obtained using a genomic DNA extraction kit, and telomere length was determined by qPCR using gDNA as a template.

`O=C(O)C=CCCCCCCCO` [10-HDA, 10-hydroxy-2-decenoic acid]: in the assay with 3D epidermal model, the “ceramide/protein (total ceramide normalized by sample protein amount) increase” value is recorded as 47.64%, the “fatty acid/protein (total fatty acid normalized by sample protein amount) increase” value amounted to 39.0%, the total ceramide increase is given as 35.37% and the “total fatty acid increase” value is recorded as 27.51%. Moreover, the inhibition (in general, the share of the control response that was lost under treatment) at 250 µg/mL in the assay on fibroblasts [1] (immunofluorescence, read-out: γ-H2AX inhibition rate) is 47.2%. In addition, the inhibition at 250 µg/mL with fibroblasts [1] (read-out: 8-OHdG inhibition rate) was determined as 45.1%. For the same compound, in the assay on fibroblasts [2], the NADPH content increase was determined as 15.13% and the “mitochondrial ATP content increase” value is listed as 56.23%. Moreover, the inhibition at 250 µg/mL in the assay on fibroblasts [2] (read-out: early apoptosis rate inhibition rate) worked out at 12.7%. The inhibition at 250 µg/mL in the assay on fibroblasts [2] (read-out: mitochondrial ROS inhibition rate) came out at 70.7%.
Consider `CC(C)(O)[C@@H]1CC[C@](C)([C@H]2[C@@H](O)C[C@@]3(C)[C@@H]4C[C@H](O)[C@H]5C(C)(C)[C@@H](O)CC[C@@]56C[C@@]46CC[C@]23C)O1` [cycloastragenol, reference compound], for which the “telomere length increase relative to the NC group” value in the assay with fibroblasts [3] is reported as 43.1%.
